Source: ChEMBL document CHEMBL1629583, “Establishment of in vitro susceptibility testing methodologies and comparative activities of piperacillin in combination with the penem {beta}-lactamase inhibitor BLI-489” (2009)
Values after ≈ are worked out from the molar mass of the structure shown.

What was measured:
Format in all cases: functional
[1] = system: Clostridium perfringens; experiment: Antimicrobial activity against Clostridium perfringens clinical isolate after 18 to 22 hrs by broth microdilution method
[2] = system: Bacteroides uniformis; experiment: Antimicrobial activity against Bacteroides uniformis clinical isolate after 18 to 22 hrs by broth microdilution method
[3] = system: Peptostreptococcus anaerobius; experiment: Antimicrobial activity against Peptostreptococcus anaerobius clinical isolate after 18 to 22 hrs by broth microdilution method
[4] = system: Bacteroides fragilis; experiment: Antimicrobial activity against Bacteroides fragilis clinical isolate after 18 to 22 hrs by broth microdilution method
[5] = system: Bacteroides thetaiotaomicron; experiment: Antimicrobial activity against Bacteroides thetaiotaomicron clinical isolate after 18 to 22 hrs by broth microdilution method
[6] = system: Parvimonas micra; experiment: Antimicrobial activity against Peptostreptococcus micros clinical isolate after 18 to 22 hrs by broth microdilution method
[7] = system: Escherichia coli; experiment: Antimicrobial activity against Escherichia coli clinical isolate after 18 to 22 hrs by broth microdilution method
[8] = system: Klebsiella pneumoniae; experiment: Antimicrobial activity against AmpC- producing Klebsiella pneumoniae clinical isolate after 18 to 22 hrs by broth microdilution method
[9] = system: Acinetobacter lwoffii; experiment: Antimicrobial activity against Acinetobacter lwoffii clinical isolate after 18 to 22 hrs by broth microdilution method
[10] = system: Morganella morganii; experiment: Antimicrobial activity against Morganella morganii clinical isolate after 18 to 22 hrs by broth microdilution method
[11] = system: Serratia marcescens; experiment: Antimicrobial activity against AmpC beta-lactamase-producing Serratia marcescens clinical isolate after 18 to 22 hrs by broth microdilution method
[12] = system: Acinetobacter johnsonii; experiment: Antimicrobial activity against Acinetobacter johnsonii clinical isolate after 18 to 22 hrs by broth microdilution method
[13] = system: Citrobacter freundii; experiment: Antimicrobial activity against AmpC beta-lactamase-producing Citrobacter freundii clinical isolate after 18 to 22 hrs by broth microdilution method
[14] = system: Escherichia coli; experiment: Antimicrobial activity against AmpC beta-lactamase-producing Escherichia coli clinical isolate after 18 to 22 hrs by broth microdilution method
[15] = system: Moraxella catarrhalis; experiment: Antimicrobial activity against Moraxella catarrhalis clinical isolate after 18 to 22 hrs by broth microdilution method
[16] = system: Burkholderia cepacia; experiment: Antimicrobial activity against Burkholderia cepacia clinical isolate after 18 to 22 hrs by broth microdilution method
[17] = system: Klebsiella aerogenes; experiment: Antimicrobial activity against Enterobacter aerogenes clinical isolate after 18 to 22 hrs by broth microdilution method
[18] = system: Klebsiella pneumoniae; experiment: Antimicrobial activity against class A extended spectrum beta-lactamase- and class D OXA- producing Klebsiella pneumoniae clinical isolate after 18 to 22 hrs by broth microdilution method
[19] = system: Providencia rettgeri; experiment: Antimicrobial activity against Providencia rettgeri clinical isolate after 18 to 22 hrs by broth microdilution method
[20] = system: Proteus mirabilis; experiment: Antimicrobial activity against Proteus mirabilis clinical isolate after 18 to 22 hrs by broth microdilution method
[21] = system: Enterobacter cloacae; experiment: Antimicrobial activity against Enterobacter cloacae clinical isolate after 18 to 22 hrs by broth microdilution method
[22] = system: Haemophilus influenzae; experiment: Antimicrobial activity against beta-lactamase-negative Haemophilus influenzae clinical isolate after 18 to 22 hrs by broth microdilution method
[23] = system: Klebsiella aerogenes; experiment: Antimicrobial activity against AmpC beta-lactamase-producing Enterobacter aerogenes clinical isolate after 18 to 22 hrs by broth microdilution method
[24] = system: Acinetobacter haemolyticus; experiment: Antimicrobial activity against Acinetobacter haemolyticus clinical isolate after 18 to 22 hrs by broth microdilution method
[25] = system: Providencia stuartii; experiment: Antimicrobial activity against Providencia stuartii clinical isolate after 18 to 22 hrs by broth microdilution method
[26] = system: Klebsiella oxytoca; experiment: Antimicrobial activity against Klebsiella oxytoca clinical isolate after 18 to 22 hrs by broth microdilution method
[27] = system: Citrobacter freundii; experiment: Antimicrobial activity against Citrobacter freundii clinical isolate after 18 to 22 hrs by broth microdilution method
[28] = system: Escherichia coli; experiment: Antimicrobial activity against class A extended spectrum beta-lactamase- and class D OXA- producing Escherichia coli clinical isolate after 18 to 22 hrs by broth microdilution method
[29] = system: Haemophilus influenzae; experiment: Antimicrobial activity against beta-lactamase-producing Haemophilus influenzae clinical isolate after 18 to 22 hrs by broth microdilution method
[30] = system: Acinetobacter calcoaceticus; experiment: Antimicrobial activity against Acinetobacter calcoaceticus clinical isolate after 18 to 22 hrs by broth microdilution method
[31] = system: Acinetobacter baumannii; experiment: Antimicrobial activity against Acinetobacter baumannii clinical isolate after 18 to 22 hrs by broth microdilution method
[32] = system: Pseudomonas aeruginosa; experiment: Antimicrobial activity against Pseudomonas aeruginosa clinical isolate after 18 to 22 hrs by broth microdilution method
[33] = system: Serratia marcescens; experiment: Antimicrobial activity against Serratia marcescens clinical isolate after 18 to 22 hrs by broth microdilution method
[34] = system: Klebsiella pneumoniae; experiment: Antimicrobial activity against class A extended spectrum beta-lactamase- producing Klebsiella pneumoniae clinical isolate after 18 to 22 hrs by broth microdilution method
[35] = system: Enterobacter cloacae; experiment: Antimicrobial activity against AmpC beta-lactamase-producing Enterobacter cloacae clinical isolate after 18 to 22 hrs by broth microdilution method
[36] = system: Escherichia coli; experiment: Antimicrobial activity against class A extended spectrum beta-lactamase- producing Escherichia coli clinical isolate after 18 to 22 hrs by broth microdilution method
[37] = system: Proteus vulgaris; experiment: Antimicrobial activity against Proteus vulgaris clinical isolate after 18 to 22 hrs by broth microdilution method
[38] = system: Citrobacter koseri; experiment: Antimicrobial activity against Citrobacter koseri clinical isolate after 18 to 22 hrs by broth microdilution method
[39] = system: Haemophilus parainfluenzae; experiment: Antimicrobial activity against Haemophilus parainfluenzae clinical isolate after 18 to 22 hrs by broth microdilution method
[40] = system: Acinetobacter junii; experiment: Antimicrobial activity against Acinetobacter junii clinical isolate after 18 to 22 hrs by broth microdilution method
[41] = system: Stenotrophomonas maltophilia; experiment: Antimicrobial activity against Stenotrophomonas maltophilia clinical isolate after 18 to 22 hrs by broth microdilution method
[42] = system: Klebsiella pneumoniae; experiment: Antimicrobial activity against Klebsiella pneumoniae clinical isolate after 18 to 22 hrs by broth microdilution method

Compound: CO[C@@]1(NC(=O)Cc2cccs2)C(=O)N2C(C(=O)O)=C(COC(N)=O)CS[C@@H]21 [CEFOXITIN]
- MIC50 [1]: 1 µg/mL (≈ 2.34 µM)
- MIC90 [1]: 2 µg/mL (≈ 4.68 µM)
- MIC50 [2]: 16 µg/mL (≈ 37.4 µM)
- MIC90 [2]: 16 µg/mL (≈ 37.4 µM)
- MIC50 [3]: 0.25 µg/mL (≈ 0.585 µM)
- MIC90 [3]: 1 µg/mL (≈ 2.34 µM)
- MIC50 [4]: 8 µg/mL (≈ 18.7 µM)
- MIC90 [4]: 16 µg/mL (≈ 37.4 µM)
- MIC [5]: 16 µg/mL (≈ 37.4 µM)
- MIC50 [5]: 16 µg/mL (≈ 37.4 µM)
- MIC90 [5]: 32 µg/mL (≈ 74.9 µM)
- MIC50 [6]: 0.5 µg/mL (≈ 1.17 µM)
- MIC90 [6]: 0.5 µg/mL (≈ 1.17 µM)

Compound: CO/N=C(\C(=O)N[C@@H]1C(=O)N2C(C(=O)O)=C(CSc3nc(=O)c(O)nn3C)CS[C@H]12)c1csc(N)n1 [CEFTRIAXONE]
- MIC50 [7]: 0.06 µg/mL (≈ 0.108 µM)
- MIC90 [7]: 0.06 µg/mL (≈ 0.108 µM)
- MIC50 [8]: 32 µg/mL (≈ 57.7 µM)
- MIC90 [8]: > 32 µg/mL
- MIC50 [9]: 2 µg/mL (≈ 3.61 µM)
- MIC90 [9]: 8 µg/mL (≈ 14.4 µM)
- MIC50 [10]: 0.06 µg/mL (≈ 0.108 µM)
- MIC90 [10]: 8 µg/mL (≈ 14.4 µM)
- MIC50 [11]: 32 µg/mL (≈ 57.7 µM)
- MIC90 [11]: > 32 µg/mL
- MIC50 [12]: 2 µg/mL (≈ 3.61 µM)
- MIC90 [12]: 8 µg/mL (≈ 14.4 µM)
- MIC50 [13]: 32 µg/mL (≈ 57.7 µM)
- MIC90 [13]: > 32 µg/mL
- MIC50 [14]: > 32 µg/mL
- MIC90 [14]: > 32 µg/mL
- MIC [15]: ≤ 0.03 µg/mL
- MIC50 [15]: ≤ 0.03 µg/mL
- MIC90 [15]: 0.5 µg/mL (≈ 0.902 µM)
- MIC50 [16]: 32 µg/mL (≈ 57.7 µM)
- MIC90 [16]: > 32 µg/mL
- MIC50 [17]: 0.12 µg/mL (≈ 0.216 µM)
- MIC90 [17]: > 32 µg/mL
- MIC50 [18]: > 32 µg/mL
- MIC90 [18]: > 32 µg/mL
- MIC50 [19]: 0.06 µg/mL (≈ 0.108 µM)
- MIC90 [19]: > 32 µg/mL
- MIC50 [20]: ≤ 0.03 µg/mL
- MIC90 [20]: > 32 µg/mL
- MIC50 [21]: 0.5 µg/mL (≈ 0.902 µM)
- MIC90 [21]: > 32 µg/mL
- MIC [22]: ≤ 0.03 µg/mL
- MIC50 [22]: ≤ 0.03 µg/mL
- MIC90 [22]: ≤ 0.03 µg/mL
- MIC50 [23]: 32 µg/mL (≈ 57.7 µM)
- MIC90 [23]: > 32 µg/mL
- MIC50 [24]: 2 µg/mL (≈ 3.61 µM)
- MIC90 [24]: 8 µg/mL (≈ 14.4 µM)
- MIC50 [25]: 0.06 µg/mL (≈ 0.108 µM)
- MIC90 [25]: > 32 µg/mL
- MIC50 [26]: 0.06 µg/mL (≈ 0.108 µM)
- MIC90 [26]: 0.12 µg/mL (≈ 0.216 µM)
- MIC50 [27]: 0.5 µg/mL (≈ 0.902 µM)
- MIC90 [27]: > 32 µg/mL
- MIC [28]: > 32 µg/mL
- MIC50 [28]: > 32 µg/mL
- MIC90 [28]: > 32 µg/mL
- MIC [29]: ≤ 0.03 µg/mL
- MIC50 [29]: ≤ 0.03 µg/mL
- MIC90 [29]: ≤ 0.03 µg/mL
- MIC50 [30]: > 32 µg/mL
- MIC90 [30]: > 32 µg/mL
- MIC50 [31]: > 32 µg/mL
- MIC90 [31]: > 32 µg/mL
- MIC50 [32]: > 32 µg/mL
- MIC90 [32]: > 32 µg/mL
- MIC50 [33]: 0.5 µg/mL (≈ 0.902 µM)
- MIC90 [33]: > 32 µg/mL
- MIC50 [34]: > 32 µg/mL
- MIC90 [34]: > 32 µg/mL
- MIC50 [35]: 32 µg/mL (≈ 57.7 µM)
- MIC90 [35]: > 32 µg/mL
- MIC50 [36]: > 32 µg/mL
- MIC90 [36]: > 32 µg/mL
- MIC50 [37]: 32 µg/mL (≈ 57.7 µM)
- MIC90 [37]: > 32 µg/mL
- MIC50 [38]: 0.06 µg/mL (≈ 0.108 µM)
- MIC90 [38]: 0.25 µg/mL (≈ 0.451 µM)
- MIC [39]: ≤ 0.03 µg/mL
- MIC50 [39]: ≤ 0.03 µg/mL
- MIC90 [39]: ≤ 0.03 µg/mL
- MIC50 [40]: 2 µg/mL (≈ 3.61 µM)
- MIC90 [40]: 8 µg/mL (≈ 14.4 µM)
- MIC [41]: > 32 µg/mL
- MIC50 [41]: > 32 µg/mL
- MIC90 [41]: > 32 µg/mL
- MIC50 [42]: 0.06 µg/mL (≈ 0.108 µM)
- MIC90 [42]: 0.12 µg/mL (≈ 0.216 µM)
